Consider 15 compounds from patent US20230141603A1, “BENZODIAZEPINE DERIVATIVES AS GABA A GAMMA1 PAM” (Hoffmann-La Roche Inc., priority 2021, published 2023).

Structures are written as SMILES.

The experiment has as its target T1, h-GABAA α2β2γ1 (Homo sapiens, UniProt P47869+Q8N1C3).
T1 sequence (P47869 29-451): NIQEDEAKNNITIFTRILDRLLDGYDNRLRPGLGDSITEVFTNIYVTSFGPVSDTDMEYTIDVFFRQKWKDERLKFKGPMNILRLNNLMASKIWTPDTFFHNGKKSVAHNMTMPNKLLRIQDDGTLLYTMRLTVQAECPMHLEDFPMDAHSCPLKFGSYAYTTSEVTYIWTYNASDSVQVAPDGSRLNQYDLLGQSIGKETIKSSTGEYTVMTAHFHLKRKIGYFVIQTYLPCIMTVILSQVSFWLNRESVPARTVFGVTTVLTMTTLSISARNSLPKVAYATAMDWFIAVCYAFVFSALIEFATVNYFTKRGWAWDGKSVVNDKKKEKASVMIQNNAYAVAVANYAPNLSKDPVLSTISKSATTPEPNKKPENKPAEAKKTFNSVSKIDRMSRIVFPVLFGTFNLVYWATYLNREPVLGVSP
T1 sequence (P47870 25-512 partner limits assumed): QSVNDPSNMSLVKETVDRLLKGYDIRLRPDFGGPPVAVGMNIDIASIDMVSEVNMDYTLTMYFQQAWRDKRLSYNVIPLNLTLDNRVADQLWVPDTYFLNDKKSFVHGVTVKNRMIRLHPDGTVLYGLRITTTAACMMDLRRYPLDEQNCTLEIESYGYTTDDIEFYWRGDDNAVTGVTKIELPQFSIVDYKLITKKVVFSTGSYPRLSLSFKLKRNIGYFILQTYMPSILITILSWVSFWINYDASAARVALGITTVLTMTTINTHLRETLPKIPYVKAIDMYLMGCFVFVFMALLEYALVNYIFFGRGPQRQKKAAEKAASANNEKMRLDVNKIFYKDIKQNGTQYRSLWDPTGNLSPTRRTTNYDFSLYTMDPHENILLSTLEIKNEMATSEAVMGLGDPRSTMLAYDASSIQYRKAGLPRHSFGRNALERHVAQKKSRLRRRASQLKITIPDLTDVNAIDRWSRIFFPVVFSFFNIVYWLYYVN
T1 sequence (Q8N1C3 36-465): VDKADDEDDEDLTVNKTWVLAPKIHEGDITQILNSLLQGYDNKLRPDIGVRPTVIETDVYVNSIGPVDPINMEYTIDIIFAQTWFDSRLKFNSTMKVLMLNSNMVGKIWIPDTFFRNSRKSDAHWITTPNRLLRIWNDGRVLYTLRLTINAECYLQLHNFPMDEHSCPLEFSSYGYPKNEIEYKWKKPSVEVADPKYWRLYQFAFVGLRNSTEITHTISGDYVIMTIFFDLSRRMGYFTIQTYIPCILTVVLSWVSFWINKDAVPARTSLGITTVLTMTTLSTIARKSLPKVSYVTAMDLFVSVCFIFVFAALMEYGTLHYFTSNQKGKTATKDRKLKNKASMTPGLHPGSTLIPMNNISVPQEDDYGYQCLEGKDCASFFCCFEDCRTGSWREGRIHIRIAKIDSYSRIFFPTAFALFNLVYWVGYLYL
Kind of experiment: Two-electrode voltage clamp electrophysiology in Xenopus oocytes, modulation of GABA EC20 current. Format: cell-based. More on the design: host or cells: Xenopus laevis oocytes, RNA micro-injection. The settings on record: Table 2; for Efficacy (GABA)%: % modulation of GABA EC20 = 100*(Fold increase−1), compound at approx. 30-fold Ki; for Fold increase h-GABA-A α2β2γ1 oocyte @ 30-fold Ki: compound at approx. 30-fold its Ki α2β2γ1, GABA EC20, Xenopus oocytes. Put shortly: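 Oocytes injected with receptor subunit mRNA were recorded 3–5 days later by two-electrode voltage clamp at −80 mV, room temperature, pH 7.4. Compound was applied during a second GABA EC20 pulse, with at least 3 oocytes per concentration. Efficacy is the ratio-trace extremum, expressed as % modulation of GABA EC20.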
On the technique in general: In two-electrode clamp one electrode senses voltage and the other passes current.

For `OCc1nnc2n1-c1ccc(Br)c(Cl)c1C(c1c(F)cccc1F)=NC2` [Example 33, [8-bromo-7-chloro-6-(2,6-difluorophenyl)-4H-[1,2,4]triazolo[4,3-a][1,4]benzodiazepin-1-yl]methanol], the “Efficacy (GABA)%” value came to 80% and the “Fold increase h-GABA-A α2β2γ1 oocyte @ 30-fold Ki” value was found to be 1.80.

On to `Fc1cccnc1C1=NCc2nnc(-c3ccncn3)n2-c2ccc(C(F)(F)F)c(Cl)c21` [Example 69, 7-chloro-6-(3-fluoro-2-pyridyl)-1-pyrimidin-4-yl-8-(trifluoromethyl)-4H-[1,2,4]triazolo[4,3-a][1,4]benzodiazepine], for which the “Efficacy (GABA)%” value was 136% and the “Fold increase h-GABA-A α2β2γ1 oocyte @ 30-fold Ki” value is 2.36.

For `Fc1cccc(F)c1C1=NCc2nnc(-c3cccnn3)n2-c2ccc(I)c(Cl)c21` [Example 39, 7-chloro-6-(2,6-difluorophenyl)-8-iodo-1-pyridazin-3-yl-4H-[1,2,4]triazolo[4,3-a][1,4]benzodiazepine], the “Efficacy (GABA)%” value was found to be 133% and the “Fold increase h-GABA-A α2β2γ1 oocyte @ 30-fold Ki” value amounted to 2.33.

Take `Fc1cccnc1C1=NCc2nnc(C3CC3)n2-c2ccc(Br)c(Cl)c21` [Example 77, 8-bromo-7-chloro-1-cyclopropyl-6-(3-fluoro-2-pyridyl)-4H-[1,2,4]triazolo[4,3-a][1,4]benzodiazepine]: the “Efficacy (GABA)%” value was 66% and the “Fold increase h-GABA-A α2β2γ1 oocyte @ 30-fold Ki” value is 1.66.

As to `Fc1cccnc1C1=NCc2nnc(-c3ccncn3)n2-c2ccc(Br)c(Cl)c21` [Example 46, 8-bromo-7-chloro-6-(3-fluoro-2-pyridyl)-1-pyrimidin-4-yl-4H-[1,2,4]triazolo[4,3-a][1,4]benzodiazepine], the “Efficacy (GABA)%” value is reported as 55% and the “Fold increase h-GABA-A α2β2γ1 oocyte @ 30-fold Ki” value is given as 1.55.

`Cc1nnc2n1-c1ccc(C(F)(F)F)c(Cl)c1C(c1ncccc1F)=NC2` [Example 78, 7-chloro-6-(3-fluoro-2-pyridyl)-1-methyl-8-(trifluoromethyl)-4H-[1,2,4]triazolo[4,3-a][1,4]benzodiazepine]: the “Efficacy (GABA)%” value amounted to 103% and the “Fold increase h-GABA-A α2β2γ1 oocyte @ 30-fold Ki” value was 2.03.

As for `Cn1cc(-c2nnc3n2-c2ccc(C(F)(F)F)c(Cl)c2C(c2ncccc2F)=NC3)cn1` [Example 70, 7-chloro-6-(3-fluoro-2-pyridyl)-1-(1-methylpyrazol-4-yl)-8-(trifluoromethyl)-4H-[1,2,4]triazolo[4,3-a][1,4]benzodiazepine], the “Efficacy (GABA)%” value is recorded as 78% and the “Fold increase h-GABA-A α2β2γ1 oocyte @ 30-fold Ki” value was 1.78.

`Cc1nnc2n1-c1ccc(Br)c(Cl)c1C(c1ncccc1F)=NC2` [Example 24, 8-bromo-7-chloro-6-(3-fluoro-2-pyridyl)-1-methyl-4H-[1,2,4]triazolo[4,3-a][1,4]benzodiazepine]: the “Efficacy (GABA)%” value was determined as 85% and the “Fold increase h-GABA-A α2β2γ1 oocyte @ 30-fold Ki” value is on record as 1.85.

With `Cl.NCc1nnc2n1-c1ccc(Br)c(Cl)c1C(c1c(F)cccc1F)=NC2` [Example 36, [8-bromo-7-chloro-6-(2,6-difluorophenyl)-4H-[1,2,4]triazolo[4,3-a][1,4]benzodiazepin-1-yl]methanamine hydrochloride], the “Efficacy (GABA)%” value was found to be 33% and the “Fold increase h-GABA-A α2β2γ1 oocyte @ 30-fold Ki” value was 1.33.

In the case of `Fc1cccc(F)c1C1=NCc2nnc(-c3cccnn3)n2-c2ccc(Br)c(Br)c21` [Example 42, 7,8-dibromo-6-(2,6-difluorophenyl)-1-pyridazin-3-yl-4H-[1,2,4]triazolo[4,3-a][1,4]benzodiazepine], the “Efficacy (GABA)%” value is given as 97% and the “Fold increase h-GABA-A α2β2γ1 oocyte @ 30-fold Ki” value is listed as 1.97.

On to `Fc1cccc(F)c1C1=NCc2nncn2-c2ccc(Cl)c(Cl)c21` [Example 15, 7,8-dichloro-6-(2,6-difluorophenyl)-4H-[1,2,4]triazolo[4,3-a][1,4]benzodiazepine], for which the “Efficacy (GABA)%” value is on record as 60% and the “Fold increase h-GABA-A α2β2γ1 oocyte @ 30-fold Ki” value worked out at 1.60.

For the compound `Cc1nnc2n1-c1ccc(Br)c(Cl)c1C(c1c(F)cccc1F)=NC2` [Example 1, 8-bromo-7-chloro-6-(2,6-difluorophenyl)-1-methyl-4H-[1,2,4]triazolo[4,3-a][1,4]benzodiazepine], the “Efficacy (GABA)%” value stood at 77% and the “Fold increase h-GABA-A α2β2γ1 oocyte @ 30-fold Ki” value is recorded as 1.77.

Consider `Clc1cccnc1C1=NCc2nnc(-c3ccncn3)n2-c2ccc(Br)c(Cl)c21` [Example 44, 8-bromo-7-chloro-6-(3-chloro-2-pyridyl)-1-pyrimidin-4-yl-4H-[1,2,4]triazolo[4,3-a][1,4]benzodiazepine], for which the “Efficacy (GABA)%” value is given as 62% and the “Fold increase h-GABA-A α2β2γ1 oocyte @ 30-fold Ki” value worked out at 1.62.

For the compound `Fc1cccc(F)c1C1=NCc2nncn2-c2ccc(I)c(Cl)c21` [Example 34, 7-chloro-6-(2,6-difluorophenyl)-8-iodo-4H-[1,2,4]triazolo[4,3-a][1,4]benzodiazepine], the “Efficacy (GABA)%” value is 81% and the “Fold increase h-GABA-A α2β2γ1 oocyte @ 30-fold Ki” value turned out to be 1.81.

As for `Fc1ccccc1C1=NCc2nnc(-c3cccnn3)n2-c2ccc(Cl)c(Cl)c21` [Example 10, 7,8-dichloro-6-(2-fluorophenyl)-1-pyridazin-3-yl-4H-[1,2,4]triazolo[4,3-a][1,4]benzodiazepine], the “Efficacy (GABA)%” value came out at 69% and the “Fold increase h-GABA-A α2β2γ1 oocyte @ 30-fold Ki” value turned out to be 1.69.
